The values below come from patent US20260085262A1, “ACQ FLUORESCENCE PROBE COMPOSITION, CMC DETERMINATION METHOD, STAIN CLEANING CONCENTRATION DETERMINATION METHOD, DETERGENT DISPENSING CONTROL METHOD, AND DETERGENT DISPENSING CONTROL SYSTEM” (GUANGZHOU BLUEMOON INDUSTRIAL CO., LTD., priority 2024, published 2026).

Where two headings read alike, the source gives them in different places.

The conditions of data set [1]: document value; cited from earlier work.
The conditions of data set [2]: solvent, cited from earlier work.
A short description of data set [3]: Hansen solubility parameters (HSP), δ difference and HSP distance Ra.
Data set [4] is described as follows: cmc by fluorescence probe method, customized photoelectric detector (CD detector). The settings on record: aqueous solution of Supreme Biotechnology (Bright White) laundry detergent; label = solvent for probe. Type of data set: physicochemical. Here is the method: Here, the liquid to be tested is Supreme Biotechnology (Brilliant White) detergent solution (ZZLB), and the detector is a customized photoelectric detector (CD detector).
In addition, due to the use of the CUR-NMP single organic solvent composition system, the solvent addition amount in Table 6 can be considered equivalent to the addition amount of the probe solution. The cmc value is determined using the fitted line intersection method, i.e., according to the determination results of a fluorescence spectrophotometer, an appropriate wavelength is selected within the corresponding fluorescence emission peak range, and a fluorescence response value-concentration curve is plotted with detergent concentrations on the x-axis and fluorescence intensity on the y-axis. The plateau region and the rising region of the curve are fitted by linear regression, respectively, and the intersection point of two fitted lines is obtained. The surfactant concentration on the x-axis corresponding to the intersection point is the cmc concentration (measured value).
The fluorescence photoelectric detector used in the present invention includes any of the following: • 1) including excitation filter (430 nm), dichroic mirror, and emission filter (495 nm), light source: peak wavelength of 430 nm, waveband of 420 to 440 nm, working current: 0.02 A, working voltage: 5V, the acceptable wavelength range of detector of at least 480-510 nm; • 2) including excitation filter (550 nm), dichroic mirror, and emission filter (638 nm), light source: peak wavelength of 550 nm, waveband of 540 to 560 nm, working current: 0.02 A, working voltage: 5V, the acceptable wavelength range of detector of at least 620-650 nm.
Referring to Examples 1 and 3, Supreme Biotechnology (Brilliant White) detergent solution was prepared. […] Determination was carried out using a CD detector in the above two cases.

Data set [5] is described as follows: cmc of detergent solution by fluorescence probe method, fluorescence spectrophotometer (Example 1). It counts as physicochemical.
Where [6] appears, read: HSP distance between solvent and curcumin (CUR).
The mark [7] stands for this setting: total δ of solvent minus total δ of curcumin (CUR).
The mark [8] stands for this setting: HSP distance between solvent and pyrene.
The mark [9] stands for this setting: HSP distance between solvent and rhodamine B.
Where [10] appears, read: total δ of solvent minus total δ of pyrene.
Setting [11] is: total δ of solvent minus total δ of rhodamine B.
[12] abbreviates: aqueous solution of Supreme Biotechnology (Bright White) laundry detergent, label = solvent for probe.
Where [13] appears, read: aqueous solution of Supreme Biotechnology (Bright White) laundry detergent, label = solvent for probe (auxiliary agent).

`CCCCOC(=O)c1ccccc1C(=O)OCCCC` [Dibutyl phthalate]: in data set [1], the “Dispersion δD” value is listed as 17.8 (MPa)^1/2, the “Hydrogen bonding δH” value is 4.1 (MPa)^1/2, the “Polarity δH” value is 8.6 (MPa)^1/2 and the “Total δ” value is 20.189 (MPa)^1/2. For the same compound, in data set [2], the Flash point was 171 °C, the Viscosity is recorded as 9.72 mPa · s and the Volatility/Boiling point was 339 °C.

Turning to `OCCOc1ccccc1` [Ethylene glycol monophenyl ether], in data set [1], the “Dispersion δD” value is 17.8 (MPa)^1/2, the “Hydrogen bonding δH” value is recorded as 12.2 (MPa)^1/2, the “Polarity δH” value is listed as 5.9 (MPa)^1/2 and the “Total δ” value is 22.372 (MPa)^1/2. In data set [2], the Flash point was 121 °C, the Viscosity was 30.5 mPa · s and the Volatility/Boiling point is 245 °C. The Ra in data set [3] (setting [6]) is reported as 2.858 (MPa)^1/2. Further, in data set [3] (setting [7]), the δ difference is −0.207 (MPa)^1/2.

Consider `CCOC(=O)CO` [Ethyl glycolate], for which, in data set [2], the Flash point is 62 °C and the Volatility/Boiling point is 158 °C. For the same compound, the Ra in data set [3] (setting [6]) is on record as 14.383 (MPa)^1/2. Moreover, the δ difference in data set [3] (setting [7]) was 2.225 (MPa)^1/2.

For the compound `CC#N` [Acetonitrile], in data set [1], the “Dispersion δD” value is 15.3 (MPa)^1/2, the “Hydrogen bonding δH” value is 6.1 (MPa)^1/2, the “Polarity δH” value is reported as 18 (MPa)^1/2 and the “Total δ” value is given as 24.399 (MPa)^1/2. In data set [2], the Flash point is 5.6 °C, the Viscosity is 0.375 mPa · s and the Volatility/Boiling point was 82 °C.

For the compound `CC(C)=O` [Acetone], in data set [1], the “Dispersion δD” value was 15.5 (MPa)^1/2, the “Hydrogen bonding δH” value is given as 7 (MPa)^1/2, the “Polarity δH” value is 10.4 (MPa)^1/2 and the “Total δ” value is 19.935 (MPa)^1/2. In addition, in data set [2], the Flash point is −17.8 °C, the Viscosity was 0.316 mPa · s and the Volatility/Boiling point is 56 °C. Further, in data set [3] (setting [8]), the Ra is 16.806 (MPa)^1/2. In data set [3] (setting [9]), the Ra is listed as 13.727 (MPa)^1/2. Besides, the δ difference in data set [3] (setting [10]) is listed as −2.974 (MPa)^1/2. Further, the δ difference in data set [3] (setting [11]) was −10.518 (MPa)^1/2.

Consider `CCOCC` [Ether], for which, in data set [1], the “Dispersion δD” value is 14.5 (MPa)^1/2, the “Hydrogen bonding δH” value is listed as 4.6 (MPa)^1/2, the “Polarity δH” value is recorded as 2.9 (MPa)^1/2 and the “Total δ” value was 15.486 (MPa)^1/2. Also, the Ra in data set [3] (setting [8]) is listed as 16.064 (MPa)^1/2. In addition, in data set [3] (setting [9]), the Ra is given as 20.633 (MPa)^1/2. In addition, the δ difference in data set [3] (setting [10]) was −7.423 (MPa)^1/2. Also, in data set [3] (setting [11]), the δ difference is −14.967 (MPa)^1/2.

Consider `CCOCCOCCO` [Diethylene glycol monoethyl ether (DGME), Diethylene glycol monoethyl ether], for which, in data set [4], the “cmc value, CUR, By Customized fluorescence photoelectric detector” value stood at 0.114 g/L and the “cmc value, NR, By Customized fluorescence photoelectric detector” value turned out to be 0.074 g/L. In data set [5] (setting [12]), the “cmc value, NR, By Fluorescence spectrophotometer” value was determined as 0.089 g/L. In addition, the “cmc value, CUR, By Fluorescence spectrophotometer” value in data set [5] (setting [13]) is listed as 0.086 g/L. Moreover, in data set [1], the “Dispersion δD” value is recorded as 16.1 (MPa)^1/2, the “Hydrogen bonding δH” value is recorded as 12.2 (MPa)^1/2, the “Polarity δH” value is listed as 9.2 (MPa)^1/2 and the “Total δ” value was 22.197 (MPa)^1/2. Moreover, in data set [2], the Flash point is 94 °C, the Viscosity was 3.85 mPa · s and the Volatility/Boiling point is 202 °C. Besides, the Ra in data set [3] (setting [6]) is given as 6.386 (MPa)^1/2. Also, the Ra in data set [3] (setting [8]) is on record as 16.995 (MPa)^1/2. Also, in data set [3] (setting [9]), the Ra is 10.489 (MPa)^1/2. Further, the δ difference in data set [3] (setting [7]) was −0.382 (MPa)^1/2. Besides, the δ difference in data set [3] (setting [10]) is listed as −0.712 (MPa)^1/2. For the same compound, the δ difference in data set [3] (setting [11]) is −8.256 (MPa)^1/2.

Regarding `OCC(O)CO` [Glycerol], in data set [1], the “Dispersion δD” value is 17.4 (MPa)^1/2, the “Hydrogen bonding δH” value was 29.3 (MPa)^1/2, the “Polarity δH” value is 12.1 (MPa)^1/2 and the “Total δ” value is recorded as 36.162 (MPa)^1/2. Also, in data set [3] (setting [6]), the Ra was 17.614 (MPa)^1/2. Moreover, in data set [3] (setting [7]), the δ difference is 13.583 (MPa)^1/2.

In the case of `CN(C)C=O` [Dimethylformamide (DMF), Dimethylformamide], in data set [1], the “Dispersion δD” value is reported as 17.4 (MPa)^1/2, the “Hydrogen bonding δH” value is 11.3 (MPa)^1/2, the “Polarity δH” value is recorded as 13.7 (MPa)^1/2 and the “Total δ” value is 24.862 (MPa)^1/2. In data set [2], the Flash point was 58 °C and the Viscosity is on record as 0.802 mPa · s.

Regarding `OCCO` [Ethylene glycol], the “cmc value, CUR, By Customized fluorescence photoelectric detector” value in data set [4] turned out to be 0.121 g/L. Further, in data set [5], the “cmc value, CUR, By Fluorescence spectrophotometer” value is recorded as 0.102 g/L and the “cmc value, NR, By Fluorescence spectrophotometer” value is given as 0.091 g/L.

For the compound `C[S+](C)[O-]` [Dimethyl sulfoxide], in data set [1], the “Dispersion δD” value is recorded as 18.4 (MPa)^1/2, the “Hydrogen bonding δH” value is given as 10.2 (MPa)^1/2, the “Polarity δH” value is 16.4 (MPa)^1/2 and the “Total δ” value is reported as 26.675 (MPa)^1/2. For the same compound, the Ra in data set [3] (setting [6]) is recorded as 13.383 (MPa)^1/2. In addition, the δ difference in data set [3] (setting [7]) is given as 4.096 (MPa)^1/2.

As to Water, in data set [1], the “Dispersion δD” value is recorded as 15.5 (MPa)^1/2, the “Hydrogen bonding δH” value is 42.3 (MPa)^1/2, the “Polarity δH” value was 16 (MPa)^1/2 and the “Total δ” value was 47.807 (MPa)^1/2. Also, in data set [2], the Viscosity is reported as 1.002 mPa · s.

As for `Cc1ccccc1` [Toluene], in data set [1], the “Dispersion δD” value was 18 (MPa)^1/2, the “Hydrogen bonding δH” value is recorded as 2 (MPa)^1/2 and the “Polarity δH” value is listed as 1.4 (MPa)^1/2. Further, in data set [2], the Flash point is 4.4 °C and the Viscosity is on record as 0.587 mPa · s.

On to “Polyethylene glycol 200 [Polyethylene glycol 200 (PEG200)]”, for which, in data set [4], the “cmc value, CUR, By Customized fluorescence photoelectric detector” value was 0.113 g/L and the “cmc value, NR, By Customized fluorescence photoelectric detector” value is recorded as 0.069 g/L. The “cmc value, NR, By Fluorescence spectrophotometer” value in data set [5] (setting [12]) worked out at 0.062 g/L. In data set [5] (setting [13]), the “cmc value, CUR, By Fluorescence spectrophotometer” value worked out at 0.094 g/L. For the same compound, in data set [2], the Flash point is >100 °C and the Viscosity entry is on record as “(22-23) mPa · s”.

`CCN1CCCC1=O` [N-ethylpyrrolidone (NEP), N-ethylpyrrolidone]: in data set [1], the “Dispersion δD” value is 18 (MPa)^1/2, the “Hydrogen bonding δH” value is given as 7 (MPa)^1/2, the “Polarity δH” value is listed as 12 (MPa)^1/2 and the “Total δ” value was 22.738 (MPa)^1/2. In addition, in data set [2], the Flash point is 76.1 °C and the Volatility/Boiling point was 218 °C. Further, the δ difference in data set [3] (setting [7]) is 0.159 (MPa)^1/2.

With `CC(O)CCO` (centres unmarked) [1,3-butanediol], the Flash point in data set [2] is 121 °C. The Viscosity in data set [2] is listed as 130.3 mPa · s; in data set [2] (listed as 1,3-butanediol (1,3-BDO)), 130 mPa · s.
